Test results published in US9062124B2, “GIP-based mixed agonists for treatment of metabolic disorders and obesity” (priority 2008, dated 2015).
Entries after “also recorded” stand apart in the source; their conditions may differ. Where a SMILES comes first, the peptide text is derived from it. Bridges are numbered along the chain shown (N, C = ends). [ ]: non-standard residue; d: D form. Dab = NCC[C@H](N)C(=O)O; Aib = CC(C)(N)C(=O)O

Experiments:
Assay type in all cases: cell-based
[1] = tested on: glucagon receptor, GLP-1 receptor or GIP receptor; test: Agonist profile across receptors assigned from the cAMP reporter assay data; details: assigned from the in vitro EC50 data of Tables 1-4
GIP receptor = target: T1, GIP receptor (Homo sapiens, UniProt P48546); test: cAMP synthesis functional assay (firefly luciferase reporter in HEK293 cells), GIP receptor
T1 construct: expressed in transfected cells; host or cells: HEK293
T1 sequence (P48546 22-466): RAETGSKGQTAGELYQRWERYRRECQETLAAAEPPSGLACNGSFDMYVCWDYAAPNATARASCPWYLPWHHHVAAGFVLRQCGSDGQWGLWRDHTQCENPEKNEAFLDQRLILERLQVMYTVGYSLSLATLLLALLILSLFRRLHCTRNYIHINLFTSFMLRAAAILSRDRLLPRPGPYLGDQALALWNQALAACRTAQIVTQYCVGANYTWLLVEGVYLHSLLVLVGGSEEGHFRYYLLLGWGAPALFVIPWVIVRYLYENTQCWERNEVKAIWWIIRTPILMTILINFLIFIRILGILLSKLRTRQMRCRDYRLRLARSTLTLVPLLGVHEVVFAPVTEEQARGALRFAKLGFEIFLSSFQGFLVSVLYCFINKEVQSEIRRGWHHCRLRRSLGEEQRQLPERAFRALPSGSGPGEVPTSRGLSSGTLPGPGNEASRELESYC

glucagon receptor = target: T2, glucagon receptor (Homo sapiens, UniProt P47871); test: cAMP synthesis functional assay (firefly luciferase reporter in HEK293 cells), glucagon receptor
T2 construct: expressed in transfected cells; host or cells: HEK293

GLP-1 receptor = target: T3, GLP-1 receptor (Homo sapiens, UniProt P43220); test: cAMP synthesis functional assay (firefly luciferase reporter in HEK293 cells), GLP-1 receptor
T3 construct: expressed in transfected cells; host or cells: HEK293

[2] = GIP Receptor EC50, cAMP luciferase reporter assay as in Example 16
[3] = relative to the standard (Std.) EC50 of the same run
[4] = Table 1, relative to the native hormone of the indicated receptor

T2 sequence (P47871 26-477): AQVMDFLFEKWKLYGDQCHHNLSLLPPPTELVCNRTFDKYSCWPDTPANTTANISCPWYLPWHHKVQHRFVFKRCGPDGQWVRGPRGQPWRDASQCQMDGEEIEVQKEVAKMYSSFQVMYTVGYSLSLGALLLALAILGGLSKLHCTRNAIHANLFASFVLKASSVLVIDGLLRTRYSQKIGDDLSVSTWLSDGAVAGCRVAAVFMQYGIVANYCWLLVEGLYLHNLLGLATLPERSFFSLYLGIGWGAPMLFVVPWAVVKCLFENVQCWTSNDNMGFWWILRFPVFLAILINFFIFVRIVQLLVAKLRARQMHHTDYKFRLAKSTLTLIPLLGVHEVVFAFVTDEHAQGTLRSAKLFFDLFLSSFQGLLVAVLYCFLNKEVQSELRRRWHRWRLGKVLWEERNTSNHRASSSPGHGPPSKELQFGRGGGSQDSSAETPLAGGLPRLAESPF
T3 sequence (P43220 24-463, species assumed): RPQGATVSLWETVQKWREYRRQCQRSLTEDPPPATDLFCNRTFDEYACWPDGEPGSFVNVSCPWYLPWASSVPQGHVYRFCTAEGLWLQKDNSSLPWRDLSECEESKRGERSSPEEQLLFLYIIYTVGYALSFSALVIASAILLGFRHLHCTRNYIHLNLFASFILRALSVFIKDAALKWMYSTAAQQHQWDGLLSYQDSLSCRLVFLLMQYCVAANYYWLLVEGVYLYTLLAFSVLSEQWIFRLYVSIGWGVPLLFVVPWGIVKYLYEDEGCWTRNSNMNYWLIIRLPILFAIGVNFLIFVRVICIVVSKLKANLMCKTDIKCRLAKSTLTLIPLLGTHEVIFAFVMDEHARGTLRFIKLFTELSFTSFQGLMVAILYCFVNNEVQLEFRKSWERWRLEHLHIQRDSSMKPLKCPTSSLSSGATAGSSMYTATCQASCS

Compound	receptor activity profile (glucagon / GLP-1 / GIP agonism) [1]	EC50 (GIP receptor; [2]) [nM]	GIP Receptor relative activity (GIP receptor; [3]) [%]	Glucagon Receptor relative activity (glucagon receptor; [3]) [%]	GLP-1 Receptor relative activity (GLP-1 receptor; [3]) [%]	EC50 (GIP receptor; GIP Receptor EC50, nM, Table 2) [nM]	GIP Receptor relative activity (GIP receptor; Table 2) [%]	EC50 (glucagon receptor; Glucagon Receptor EC50, nM, Table 2, linear peptides with AIB at position 16 and/or 20) [nM]	Glucagon Receptor relative activity (glucagon receptor; Table 2) [%]	EC50 (GLP-1 receptor; GLP-1 Receptor EC50, nM, Table 2) [nM]	GLP-1 Receptor relative activity (GLP-1 receptor; Table 2) [%]	GIP Receptor relative activity (GIP receptor; [4]) [%]	Glucagon Receptor relative activity (glucagon receptor; [4]) [%]	GLP-1 Receptor relative activity (GLP-1 receptor; [4]) [%]	EC50 (glucagon receptor; Glucagon Receptor EC50, cAMP luciferase reporter assay as in Example 16) [nM]	EC50 (GLP-1 receptor; GLP-1 Receptor EC50, cAMP luciferase reporter assay as in Example 16) [nM]
CC[C@H](C)[C@H](NC(=O)[C@H](CO)NC(=O)[C@H](Cc1ccc(O)cc1)NC(=O)[C@H](CC(=O)O)NC(=O)[C@H](CO)NC(=O)[C@@H](NC(=O)[C@H](Cc1ccccc1)NC(=O)[C@@H](NC(=O)CNC(=O)[C@H](CCC(N)=O)NC(=O)C(C)(C)NC(=O)[C@@H](N)Cc1ccc(O)cc1)[C@@H](C)O)[C@@H](C)O)C(=O)N[C@@H](Cc1ccc(O)cc1)C(=O)N[C@@H](CC(C)C)C(=O)N[C@@H](CC(=O)O)C(=O)N[C@@H](CCN)C(=O)N[C@@H](CCC(N)=O)C(=O)N[C@@H](C)C(=O)N[C@@H](C)C(=O)NC(C)(C)C(=O)N[C@@H](CCC(=O)O)C(=O)N[C@@H](Cc1ccccc1)C(=O)N[C@H](C(=O)N[C@@H](CC(N)=O)C(=O)N[C@@H](Cc1c[nH]c2ccccc12)C(=O)N[C@@H](CC(C)C)C(=O)N[C@@H](CC(C)C)C(=O)N[C@@H](C)C(=O)NCC(=O)NCC(=O)N1CCC[C@H]1C(=O)N[C@@H](CO)C(=O)N[C@@H](CO)C(=O)NCC(=O)N[C@@H](C)C(=O)N1CCC[C@H]1C(=O)N1CCC[C@H]1C(=O)N1CCC[C@H]1C(=O)N[C@@H](CO)C(=O)N[C@@H](CS)C(N)=O)C(C)C [mt-276] (H-Y[Aib]QGTFTSDYSIYLD[Dab]QAA[Aib]EFVNWLLAGGPSSGAPPPSC-NH2; N-terminus assumed)	exhibited activity at the GIP, GLP-1, and glucagon receptors	0.008	173.75	77.65	107.58	–	–	–	–	–	–	–	–	–	–	–
CC[C@H](C)[C@H](NC(=O)[C@H](CO)NC(=O)[C@H](Cc1ccc(O)cc1)NC(=O)[C@H](CC(=O)O)NC(=O)[C@H](CO)NC(=O)[C@@H](NC(=O)[C@H](Cc1ccccc1)NC(=O)[C@@H](NC(=O)CNC(=O)[C@H](CCC(N)=O)NC(=O)C(C)(C)NC(=O)[C@@H](N)Cc1ccc(O)cc1)[C@@H](C)O)[C@@H](C)O)C(=O)N[C@@H](Cc1ccc(O)cc1)C(=O)N[C@@H](CC(C)C)C(=O)N[C@@H](CC(=O)O)C(=O)N[C@@H](CCCCN)C(=O)N[C@@H](CCC(N)=O)C(=O)N[C@@H](C)C(=O)N[C@@H](C)C(=O)NC(C)(C)C(=O)N[C@@H](CCC(=O)O)C(=O)N[C@@H](Cc1ccccc1)C(=O)N[C@H](C(=O)N[C@@H](CC(N)=O)C(=O)N[C@@H](Cc1c[nH]c2ccccc12)C(=O)N[C@@H](CC(C)C)C(=O)N[C@@H](CC(C)C)C(=O)N[C@@H](C)C(=O)NCC(=O)NCC(=O)N1CCC[C@H]1C(=O)N[C@@H](CO)C(=O)N[C@@H](CO)C(=O)NCC(=O)N[C@@H](C)C(=O)N1CCC[C@H]1C(=O)N1CCC[C@H]1C(=O)N1CCC[C@H]1C(=O)N[C@@H](CO)C(=O)N[C@@H](CS)C(N)=O)C(C)C [mt-252]	exhibited activities of glucagon/GLP-1/GIP triagonists; also recorded: exhibited activity at the GIP, GLP-1, and glucagon receptors	–	146.15	13.17	116.67	0.013	146.15	0.319	13.17	0.018	116.67	–	–	–	–	–
CC[C@H](C)[C@H](NC(=O)[C@H](CO)NC(=O)[C@H](Cc1ccc(O)cc1)NC(=O)[C@H](CC(=O)O)NC(=O)[C@H](CO)NC(=O)[C@@H](NC(=O)[C@H](Cc1ccccc1)NC(=O)[C@@H](NC(=O)CNC(=O)[C@H](CCC(N)=O)NC(=O)[C@H](CO)NC(=O)[C@@H](N)Cc1ccc(O)cc1)[C@@H](C)O)[C@@H](C)O)C(=O)N[C@@H](Cc1ccc(O)cc1)C(=O)N[C@@H](CC(C)C)C(=O)N[C@@H](CC(=O)O)C(=O)N[C@H]1CCC(=O)NCCCC[C@@H](C(=O)N[C@@H](CCC(=O)O)C(=O)N[C@@H](Cc2ccccc2)C(=O)N[C@H](C(=O)N[C@@H](CC(N)=O)C(=O)N[C@@H](Cc2c[nH]c3ccccc23)C(=O)N[C@@H](CC(C)C)C(=O)N[C@@H](CC(C)C)C(=O)N[C@@H](C)C(=O)NCC(=O)NCC(=O)N2CCC[C@H]2C(=O)N[C@@H](CO)C(=O)N[C@@H](CO)C(=O)NCC(=O)N[C@@H](C)C(=O)N2CCC[C@H]2C(=O)N2CCC[C@H]2C(=O)N2CCC[C@H]2C(=O)N[C@@H](CO)C(N)=O)C(C)C)NC(=O)[C@H](C)NC(=O)[C@H](C)NC(=O)[C@H](CCC(N)=O)NC1=O [mt-140] (H-YSQGTFTSDYSIYLDEQAAKEFVNWLLAGGPSSGAPPPS-NH2; lactam 16-20; N-terminus assumed)	exemplary GLP-1/GIP/glucagon triagonist peptides	–	–	–	–	–	–	–	–	–	–	12.85	131.15	49.56	–	–
CCCCCCCCCCCCCCCCCC(=O)NCCCC[C@H](NC(=O)[C@H](CO)NC(=O)[C@@H]1CCCN1C(=O)[C@@H]1CCCN1C(=O)[C@@H]1CCCN1C(=O)[C@H](C)NC(=O)CNC(=O)[C@H](CO)NC(=O)[C@H](CO)NC(=O)[C@@H]1CCCN1C(=O)CNC(=O)CNC(=O)[C@H](C)NC(=O)[C@H](CC(C)C)NC(=O)[C@H](CC(C)C)NC(=O)[C@H](Cc1c[nH]c2ccccc12)NC(=O)[C@H](CS)NC(=O)[C@@H](NC(=O)[C@H](Cc1ccccc1)NC(=O)[C@H](CCC(=O)O)NC(=O)C(C)(C)NC(=O)[C@H](C)NC(=O)[C@H](C)NC(=O)[C@H](CCC(N)=O)NC(=O)[C@H](CCCCN)NC(=O)[C@H](CC(=O)O)NC(=O)[C@H](CC(C)C)NC(=O)[C@H](Cc1ccc(O)cc1)NC(=O)[C@@H](NC(=O)[C@H](CO)NC(=O)[C@H](Cc1ccc(O)cc1)NC(=O)[C@H](CC(=O)O)NC(=O)[C@H](CO)NC(=O)[C@@H](NC(=O)[C@H](Cc1ccccc1)NC(=O)[C@@H](NC(=O)CNC(=O)[C@H](CCC(N)=O)NC(=O)C(C)(C)NC(=O)[C@@H](N)Cc1ccc(O)cc1)[C@@H](C)O)[C@@H](C)O)[C@@H](C)CC)C(C)C)C(N)=O [mt-288]	exhibited activity at the GIP, GLP-1, and glucagon receptors	0.0137	79.56	250.72	84.78	–	–	–	–	–	–	–	–	–	0.0207	0.0138
CC[C@H](C)[C@H](NC(=O)[C@H](CO)NC(=O)[C@H](Cc1ccc(O)cc1)NC(=O)[C@H](CC(=O)O)NC(=O)[C@H](CO)NC(=O)[C@@H](NC(=O)[C@H](Cc1ccccc1)NC(=O)[C@@H](NC(=O)CNC(=O)[C@H](CCC(N)=O)NC(=O)C(C)(C)NC(=O)[C@@H](N)Cc1ccc(O)cc1)[C@@H](C)O)[C@@H](C)CC)C(=O)N[C@@H](Cc1ccc(O)cc1)C(=O)N[C@@H](CC(C)C)C(=O)N[C@@H](CC(=O)O)C(=O)N[C@H]1CCC(=O)NCCCC[C@@H](C(=O)N[C@@H](CCC(=O)O)C(=O)N[C@@H](Cc2ccccc2)C(=O)N[C@H](C(=O)N[C@@H](CC(N)=O)C(=O)N[C@@H](Cc2c[nH]c3ccccc23)C(=O)N[C@@H](CC(C)C)C(=O)N[C@@H](CC(C)C)C(=O)N[C@@H](C)C(=O)NCC(=O)NCC(=O)N2CCC[C@H]2C(=O)N[C@@H](CO)C(=O)N[C@@H](CO)C(=O)NCC(=O)N[C@@H](C)C(=O)N2CCC[C@H]2C(=O)N2CCC[C@H]2C(=O)N2CCC[C@H]2C(=O)N[C@@H](CO)C(=O)N[C@@H](CS)C(N)=O)C(C)C)NC(=O)[C@H](C)NC(=O)[C@H](C)NC(=O)[C@H](CCC(N)=O)NC1=O [mt-176]	exemplary GIP/glucagon co-agonist peptides	–	–	–	–	–	–	–	–	–	–	40.00	26.24	0.23	–	–
CC[C@H](C)[C@H](NC(=O)[C@H](CO)NC(=O)[C@H](Cc1ccc(O)cc1)NC(=O)[C@H](CC(=O)O)NC(=O)[C@H](CO)NC(=O)[C@@H](NC(=O)[C@H](Cc1ccccc1)NC(=O)[C@@H](NC(=O)CNC(=O)[C@H](CCC(N)=O)NC(=O)C(C)(C)NC(=O)[C@@H](N)Cc1ccc(O)cc1)[C@@H](C)O)[C@@H](C)O)C(=O)N[C@@H](Cc1ccc(O)cc1)C(=O)N[C@@H](CC(C)C)C(=O)N[C@@H](CC(=O)O)C(=O)N[C@H]1CCC(=O)NCCCC[C@@H](C(=O)N[C@@H](CCC(=O)O)C(=O)N[C@@H](Cc2ccccc2)C(=O)N[C@H](C(=O)N[C@@H](CS)C(=O)N[C@@H](Cc2c[nH]c3ccccc23)C(=O)N[C@@H](CC(C)C)C(=O)N[C@@H](CC(C)C)C(=O)N[C@@H](C)C(=O)NCC(=O)NCC(=O)N2CCC[C@H]2C(=O)N[C@@H](CO)C(=O)N[C@@H](CO)C(=O)NCC(=O)N[C@@H](C)C(=O)N2CCC[C@H]2C(=O)N2CCC[C@H]2C(=O)N2CCC[C@H]2C(=O)N[C@@H](CO)C(N)=O)C(C)C)NC(=O)[C@H](C)NC(=O)[C@H](C)NC(=O)[C@H](CCC(N)=O)NC1=O [mt-158] (H-Y[Aib]QGTFTSDYSIYLDEQAAKEFVCWLLAGGPSSGAPPPS-NH2; lactam 16-20; N-terminus assumed)	exemplary GLP-1/GIP/glucagon triagonist peptides	–	–	–	–	–	–	–	–	–	–	17.82	14.90	102.94	–	–
